Assay results taken from ChEMBL document CHEMBL5154738, “Design, synthesis and structural-activity relationship studies of phanginin A derivatives for regulating SIK1-cAMP/CREB signaling to suppress hepatic gluconeogenesis” (Eur J Med Chem, 2022).

Columns and labels:
[1] = Inhibition of gluconeogenesis in C57BL/6J mouse primary hepatocytes assessed as inhibition of glucagon-stimulated glucose production at 10 uM preincubated for 1.5 hrs followed by lactate and pyruvate addition and later stimulated with glucagon for 4 hrs; assay type: functional; conditions: Hepatocyte, time 5.5 hrs
[2] = Inhibition of gluconeogenesis in C57BL/6J mouse primary hepatocytes assessed as inhibition of glucagon-stimulated glucose production at 5 uM preincubated for 1.5 hrs followed by lactate and pyruvate addition and later stimulated with glucagon for 4 hrs; assay type: functional; conditions: Hepatocyte, time 5.5 hrs
[3] = Inhibition of gluconeogenesis in C57BL/6J mouse primary hepatocytes assessed as inhibition of glucagon-stimulated glucose production at 2.5 uM preincubated for 1.5 hrs followed by lactate and pyruvate addition and later stimulated with glucagon for 4 hrs; assay type: functional; conditions: Hepatocyte, time 5.5 hrs
[4] = Cytotoxicity against C57BL/6J mouse primary hepatocytes assessed as cell viability at 20 uM incubated for 24 hrs by MTT assay relative to control; assay type: toxicity, cell-based, Hepatocyte; conditions: read-out: Activity
[5] = Cytotoxicity against C57BL/6J mouse primary hepatocytes assessed as cell viability at 10 uM incubated for 24 hrs by MTT assay relative to control; assay type: toxicity, cell-based, Hepatocyte; conditions: read-out: Activity
[6] = Cytotoxicity against C57BL/6J mouse primary hepatocytes assessed as cell viability at 50 uM incubated for 24 hrs by MTT assay relative to control; assay type: toxicity, cell-based, Hepatocyte; conditions: read-out: Activity
[7] = Cytotoxicity against C57BL/6J mouse primary hepatocytes assessed as cell viability at 100 uM incubated for 24 hrs by MTT assay relative to control; assay type: toxicity, cell-based, Hepatocyte; conditions: read-out: Activity
[8] = Cytotoxicity against C57BL/6J mouse primary hepatocytes assessed as cell viability at 200 uM incubated for 24 hrs by MTT assay relative to control; assay type: toxicity, cell-based, Hepatocyte; conditions: read-out: Activity
[9] = target: Serine/threonine-protein kinase SIK1 (Mus musculus) (UniProt Q60670); assay: Activation of SIK1 in C57BL/6J mouse primary hepatocytes assessed as increase in SIK1 phosphorylation at Thr182 residue measured after 2 hrs by western blot analysis; assay type: cell-based; conditions: Primary hepatocyte, filed as activator, dose 2.5-10 µM, DDE = dose-dependent effect
Chain of Serine/threonine-protein kinase SIK1 (Mus musculus) (Q60670 whole entry): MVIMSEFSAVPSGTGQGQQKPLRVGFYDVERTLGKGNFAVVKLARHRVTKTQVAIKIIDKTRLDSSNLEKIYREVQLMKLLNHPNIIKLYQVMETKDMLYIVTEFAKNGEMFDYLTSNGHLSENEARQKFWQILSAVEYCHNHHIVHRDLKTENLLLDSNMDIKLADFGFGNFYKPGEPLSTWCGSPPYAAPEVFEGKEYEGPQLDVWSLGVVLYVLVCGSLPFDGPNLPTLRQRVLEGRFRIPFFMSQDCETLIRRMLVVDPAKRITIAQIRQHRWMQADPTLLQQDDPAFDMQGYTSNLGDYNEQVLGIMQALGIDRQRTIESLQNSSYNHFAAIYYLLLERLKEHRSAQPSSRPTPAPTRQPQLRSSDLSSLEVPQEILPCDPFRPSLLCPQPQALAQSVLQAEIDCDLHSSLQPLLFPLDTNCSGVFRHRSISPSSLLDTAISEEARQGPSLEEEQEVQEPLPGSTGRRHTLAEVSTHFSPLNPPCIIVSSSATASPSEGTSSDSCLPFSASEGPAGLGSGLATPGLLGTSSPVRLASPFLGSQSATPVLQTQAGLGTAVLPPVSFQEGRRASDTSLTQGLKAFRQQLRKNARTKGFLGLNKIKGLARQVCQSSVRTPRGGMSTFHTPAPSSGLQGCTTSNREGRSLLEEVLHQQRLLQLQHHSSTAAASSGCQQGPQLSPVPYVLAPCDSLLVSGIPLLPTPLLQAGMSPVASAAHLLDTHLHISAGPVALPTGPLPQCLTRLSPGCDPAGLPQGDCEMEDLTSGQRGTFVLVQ

| Compound | inhibition at 10 µM [1] [%] | inhibition at 5 µM [2] [%] | inhibition at 2.5 µM [3] [%] | viability at 24 h, 20 µM [4] [%] | viability at 24 h, 10 µM [5] [%] | viability at 24 h, 50 µM [6] [%] | viability at 24 h, 100 µM [7] [%] | viability at 24 h, 200 µM [8] [%] | Activity [9] |
| --- | --- | --- | --- | --- | --- | --- | --- | --- | --- |
| COC(=O)[C@@]12CCC[C@]3(C(=O)OC1)[C@H]1Cc4occc4[C@H](C)[C@@H]1CC[C@@H]23 | 41.2 |  |  |  |  |  |  |  |  |
| COC(=O)[C@@]12CCCC3([C@H](OCCO)OC1)[C@H]2CC[C@H]1[C@@H](C)[C@@H]2CCO[C@@H]2C[C@@H]13 | 15.9 |  |  |  |  |  |  |  |  |
| COC(=O)[C@@]12CCCC3([C@H](OCCCCO)OC1)[C@H]2CC[C@H]1[C@@H](C)c2ccoc2C[C@@H]13 | 92.7 | 95.8 | 47 | 27.5 | 54 | 19.8 | 18.7 | 17.6 |  |
| CNC(=O)[C@@]12CCCC3([C@H](OCCO)OC1)[C@H]2CC[C@H]1[C@@H](C)c2ccoc2C[C@@H]13 | 56.6 | 34.2 | 9.6 | 84.7 | 82.9 | 85.8 | 82.6 | 76.3 |  |
| COC(=O)[C@@]12CCCC3([C@H](OCCOCCOCCOCCO)OC1)[C@H]2CC[C@H]1[C@@H](C)c2ccoc2C[C@@H]13 | 111 | 87.8 | 63.1 | 25.4 | 48.9 | 12.9 | 11 | 7.9 | Dde |
| CCCNC(=O)[C@@]12CCCC3([C@H](OCCO)OC1)[C@H]2CC[C@H]1[C@@H](C)c2ccoc2C[C@@H]13 | 62.1 | 45 | 21.2 | 77.5 | 84.3 | 70.5 | 57.4 | 27.5 |  |
| COC(=O)[C@@]12CCCC3([C@H](OC)OC1)[C@H]2CC[C@H]1[C@@H](C)c2ccoc2C[C@@H]13 | 18.8 |  |  |  |  |  |  |  |  |
| COC(=O)[C@@]12CCCC3([C@H](OCCCCCO)OC1)[C@H]2CC[C@H]1[C@@H](C)c2ccoc2C[C@@H]13 | 89.2 | 82.7 | 32.2 | 33.3 | 70.1 | 17.2 | 19.3 | 18.7 |  |
| COC(=O)[C@@]12CCC[C@]3(COC1)[C@H]1Cc4occc4[C@H](C)[C@@H]1CC[C@@H]23 | 52 |  |  |  |  |  |  |  |  |
| CCO[C@@H]1OC[C@@]2(C(=O)OC)CCCC13[C@H]2CC[C@H]1[C@@H](C)c2ccoc2C[C@@H]13 | 24.9 |  |  |  |  |  |  |  |  |
| COC(=O)[C@@]12CCCC3([C@H](OCCO)OC1)[C@H]2CC[C@H]1[C@@H](C)C2=CC(=O)O[C@]2(O)C[C@@H]13 | -12.3 |  |  |  |  |  |  |  |  |
| COC(=O)[C@@]12CCCC3([C@H](OCCCO)OC1)[C@H]2CC[C@H]1[C@@H](C)c2ccoc2C[C@@H]13 | 97.5 | 81.8 | 32.7 | 20.6 | 49.7 | 14.1 | 12 | 9.9 |  |
| CCCCO[C@@H]1OC[C@@]2(C(=O)OC)CCCC13[C@H]2CC[C@H]1[C@@H](C)c2ccoc2C[C@@H]13 | 36.2 |  |  |  |  |  |  |  |  |
| COC(=O)[C@@]12CCCC3([C@H](O)OC1)[C@H]2CC[C@H]1[C@@H](C)[C@@H]2CCO[C@@H]2C[C@@H]13 | 41.1 |  |  |  |  |  |  |  |  |
| COC(=O)[C@@]12CCCC3([C@H](OCCOCCO)OC1)[C@H]2CC[C@H]1[C@@H](C)c2ccoc2C[C@@H]13 | 95.6 | 93.3 | 67.3 | 17.4 | 28.3 | 12 | 10.6 | 7.9 | Dde |
| CC(=O)OC[C@@]12CCCC3([C@H](OCCO)OC1)[C@H]2CC[C@H]1[C@@H](C)c2ccoc2C[C@@H]13 | 82.7 | 32.1 | -2.1 | 78.1 | 83.2 | 85 | 92.4 | 14.2 |  |
| CCNC(=O)[C@@]12CCCC3([C@H](OCCO)OC1)[C@H]2CC[C@H]1[C@@H](C)c2ccoc2C[C@@H]13 | 66.1 | 52.8 | 21.8 | 84.1 | 84.2 | 90 | 73.4 | 47.5 |  |
| C[C@H]1c2ccoc2C[C@H]2[C@H]1CC[C@@H]1C23CCC[C@]1(C(=O)O)CO[C@H]3OCCO | 24.3 |  |  |  |  |  |  |  |  |
| CC(=O)OCCO[C@@H]1OC[C@@]2(CO)CCCC13[C@H]2CC[C@H]1[C@@H](C)c2ccoc2C[C@@H]13 | 77.3 | 54.4 | 25.1 | 84.1 | 81.7 | 77.7 | 79.9 | 14.1 |  |
| COC(=O)[C@@]12CCCC3([C@H](OCCCCCCO)OC1)[C@H]2CC[C@H]1[C@@H](C)c2ccoc2C[C@@H]13 | 81.8 | 67.2 | 33.5 | 81.5 | 89.3 | 28.6 | 11.3 | 11.4 |  |
| C[C@H]1c2ccoc2C[C@H]2[C@H]1CC[C@@H]1C23CCC[C@]1(CO)CO[C@H]3OCCO | 71.1 | 69.4 | 41.4 | 69.6 | 74.8 | 63.9 | 42.2 | 13.2 |  |
| COC(=O)[C@]12CCCC3([C@H]1CC[C@H]1[C@@H](C)c4ccoc4C[C@@H]13)[C@H](SCCO)OC2 | 67.3 | 44.4 | 13.1 | 97.9 | 105 | 74.1 | 10.2 | 9.2 |  |
| COC(=O)[C@@]12CCCC3([C@H](OCCOCCOCCO)OC1)[C@H]2CC[C@H]1[C@@H](C)c2ccoc2C[C@@H]13 | 97.1 | 97.4 | 47.2 | 23.4 | 40.5 | 12.1 | 10.3 | 8.1 |  |
| COC(=O)[C@]12CCC[C@]3(COC1)[C@H]1C[C@H]4OCC[C@H]4[C@H](C)[C@@H]1CC[C@@H]23 | 36.3 |  |  |  |  |  |  |  |  |
